These results are taken from US6756389B2, “Pharmaceutically active compounds and methods of use” (Cambridge Neuroscience, Inc., priority 1996, dated 2004).

The subject of series [1] is DBA/2 mice (audiogenic seizures). Briefly: In vivo anticonvulsant activity in the DBA/2 mouse model (mouse audiogenic assay). The settings on record: 10 mg/kg intraperitoneally 30 minutes prior to auditory stimulus (12 KHz sine wave, 110-120 db, 60 seconds), inhibition relative to vehicle controls. As for the experimental part: As discussed above, preferred compounds of the invention are active in a standard anticonvulsant in vivo audiogenic test, such as the audiogenic mouse assay of Example 6 which follows, where DBA/2 mice about 20-23 days old are injected intraperitoneally with a test compound 30 minutes prior to being placed in a bell jar with exposure to auditory stimulus of 12 KHz sine wave at 110-120 db. References herein in vivo “audiogenic assay” are intended to refer to that protocol. […] As discussed above, activity in the audiogenic assay has been recognized as indicative that a test compound has neuroprotective properties. See, e.g., M. Tricklebank et al., European Journal of Pharmacology, supra; T. Seyfried, Federation Proceedings, supra.
Compounds were tested for their effectiveness in preventing seizures in DBA/2 mice which have a unique sensitivity to auditory stimulation. Exposure to loud high-frequency sounds can trigger seizure activity in these animals. […]
Mice were injected intraperitoneally with the compound specified in Table I below or with vehicle control, 30 minutes prior to being placed in a bell jar and turning on the auditory stimulus (12 KHz sine wave at 110-120 db). […] The auditory stimulus was left on for 60 seconds and mice reactions were timed and recorded. Percentage inhibition was determined with reference to vehicle controls.

What is called melting point is the temperature, or range, at which the solid turns liquid.

Counter-ions that a name gives are not always drawn.

As to `Cc1ccc([C@H]2CCC[C@H](c3ccc(C)cc3)N2C(=N)N)cc1.Cl`, the melting point stood at 120 °C. With `Cl.N=C(N)N1[C@@H](c2ccccc2)CC[C@H]1c1ccccc1`, the melting point is 242 to 244 °C. As for `Cl.N=C(Nc1ccccc1)N1[C@@H](c2ccccc2)CCC[C@H]1c1ccccc1`, the melting point lay in the range of 82 to 84 °C. In the case of `Cc1ccc([C@H]2CCC[C@@H](c3ccc(C)cc3)N2C(=N)N)cc1` (as salt: mesylate) [Example 1, N-carboximidamide-r-2, c-6-di(4-methylphenyl)piperidine], the melting point lay within 183 to 185 °C. On to `Cc1ccc([C@H]2CCC[C@@H](c3ccc(C)cc3)N2C(=N)N)cc1` [Example 1, N-carboximidamide-r-2, c-6-di(4-methylphenyl)piperidine], for which the “Audiogenic Response % Inhib.” value in series [1] stood at 42%.

`CC(C)c1ccc([C@H]2CCC[C@@H](c3ccc(C(C)C)cc3)N2C(=N)N)cc1.Cl` [Example 2, N-carboximidamide-r-2,c-6-di(4-isopropylphenyl)piperidine] showed a melting point of 197 to 199 °C. In addition, in series [1], the “Audiogenic Response % Inhib.” value came to 69%.
